According to ChEMBL document CHEMBL5120957, “SARS-CoV-2: Novel Therapeutic Approaches for Diagnosis and Treatment” (ACS Med Chem Lett, 2022):
pIC50: −log10 of the molar value.

Molecular target: Integrin alpha-V/beta-6 (Homo sapiens, UniProt P06756+P18564)
Assay: Inhibition of recombinant human alphavbeta6 integrin incubated for 2 hrs by microplate reader assay
Type: protein-complex assay

Integrin alpha-V/beta-6, sequence (P06756 31-889 limits assumed): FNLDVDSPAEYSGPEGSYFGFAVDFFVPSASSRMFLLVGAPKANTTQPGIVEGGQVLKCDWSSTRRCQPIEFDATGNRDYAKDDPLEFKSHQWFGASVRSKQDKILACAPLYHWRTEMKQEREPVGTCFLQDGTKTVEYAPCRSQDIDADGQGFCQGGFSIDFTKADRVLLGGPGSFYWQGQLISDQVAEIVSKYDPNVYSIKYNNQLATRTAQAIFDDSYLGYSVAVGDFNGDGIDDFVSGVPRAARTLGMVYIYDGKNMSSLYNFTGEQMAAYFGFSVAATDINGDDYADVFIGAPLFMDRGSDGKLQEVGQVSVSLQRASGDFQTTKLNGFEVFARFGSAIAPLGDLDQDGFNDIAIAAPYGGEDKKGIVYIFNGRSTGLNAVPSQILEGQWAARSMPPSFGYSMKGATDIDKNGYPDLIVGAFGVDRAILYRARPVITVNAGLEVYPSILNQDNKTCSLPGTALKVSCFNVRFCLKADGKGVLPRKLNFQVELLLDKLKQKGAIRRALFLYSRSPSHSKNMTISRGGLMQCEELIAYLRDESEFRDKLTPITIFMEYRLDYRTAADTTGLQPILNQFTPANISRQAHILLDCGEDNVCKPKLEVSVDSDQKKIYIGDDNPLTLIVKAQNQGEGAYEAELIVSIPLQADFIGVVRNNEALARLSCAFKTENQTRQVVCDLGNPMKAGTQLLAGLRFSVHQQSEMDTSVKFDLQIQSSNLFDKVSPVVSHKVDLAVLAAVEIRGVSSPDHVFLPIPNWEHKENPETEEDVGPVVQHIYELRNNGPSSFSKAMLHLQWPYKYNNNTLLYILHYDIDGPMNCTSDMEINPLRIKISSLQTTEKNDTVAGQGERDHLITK
Integrin alpha-V/beta-6, sequence (P06756 891-1048 limits assumed): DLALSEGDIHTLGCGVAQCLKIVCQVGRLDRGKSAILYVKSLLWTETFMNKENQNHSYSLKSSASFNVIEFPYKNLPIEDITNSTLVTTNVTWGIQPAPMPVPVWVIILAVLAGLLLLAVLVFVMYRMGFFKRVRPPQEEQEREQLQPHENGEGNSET
Integrin alpha-V/beta-6, sequence (P18564 22-788 limits assumed): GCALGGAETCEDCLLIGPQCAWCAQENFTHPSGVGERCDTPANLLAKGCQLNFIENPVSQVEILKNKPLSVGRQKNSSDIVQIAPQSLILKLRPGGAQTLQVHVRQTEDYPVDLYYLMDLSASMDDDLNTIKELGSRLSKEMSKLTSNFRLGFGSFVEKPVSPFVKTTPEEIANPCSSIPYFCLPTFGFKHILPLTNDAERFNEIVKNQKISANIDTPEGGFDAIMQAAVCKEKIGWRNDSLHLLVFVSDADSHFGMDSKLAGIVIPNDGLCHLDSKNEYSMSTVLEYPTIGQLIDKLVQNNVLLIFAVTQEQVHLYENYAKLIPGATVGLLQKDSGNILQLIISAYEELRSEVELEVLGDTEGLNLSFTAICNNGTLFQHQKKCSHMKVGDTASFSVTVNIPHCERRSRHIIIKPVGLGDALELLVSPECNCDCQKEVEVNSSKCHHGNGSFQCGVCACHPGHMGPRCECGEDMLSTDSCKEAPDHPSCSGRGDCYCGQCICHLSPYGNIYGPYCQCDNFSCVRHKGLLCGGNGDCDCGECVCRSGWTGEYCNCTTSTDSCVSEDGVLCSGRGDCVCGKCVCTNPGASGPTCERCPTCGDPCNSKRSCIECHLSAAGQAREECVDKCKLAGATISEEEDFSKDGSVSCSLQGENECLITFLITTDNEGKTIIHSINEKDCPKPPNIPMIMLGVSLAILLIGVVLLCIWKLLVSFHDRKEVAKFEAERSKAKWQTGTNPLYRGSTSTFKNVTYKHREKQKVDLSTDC

| Structure (SMILES) | pIC50 |
| --- | --- |
| COCCN(CCCCc1ccc2c(n1)NCCC2)CC[C@H](Nc1ncnc2ccccc12)C(=O)O [BEXOTEGRAST] | > 7.30 |
| O=C(O)[C@H](CCN(CCCCc1ccc2c(n1)NCCC2)CCC(F)F)Nc1ncnc2ccccc12 | > 7.30 |
| CO[C@H](C)CN(CCCCc1ccc2c(n1)NCCC2)CC[C@H](Nc1ncnc2ccccc12)C(=O)O | > 7.30 |
| COCCN(CCCCc1ccc2c(n1)NCCC2)CC[C@H](Nc1ncnc2cc(C(F)(F)F)ccc12)C(=O)O | 7.30 |
| COCCN(CCCCc1ccc2c(n1)NCCC2)CC[C@H](Nc1ncnc2cc(F)ccc12)C(=O)O | > 7.30 |
| COCCN(CCCCc1ccc2c(n1)NCCC2)CC[C@H](Nc1cc(-n2cccn2)ncn1)C(=O)O | > 7.30 |
